# Values joined by “and” are separate entries in the source; they are usually repeats but may differ in a detail not shown here. Identical values can stand only once. Like-named read-outs stand apart in the source and are kept apart here.
# What was measured:
# [1] = molecular target: T1, KlAbd1 (K. lactis cap methyltransferase Abd1, wild-type) (Kluyveromyces lactis, UniProt Q6CKI0); assay: Inhibition of GpppA methylation by KlAbd1 (LC-MS/MS assay); type: biochemical; conditions: for IC50: wild-type KlAbd1 250 nM, 100 μM SAM, 250 μM GpppA, 30°C, 10 min
# T1 construct: aa 1–426); His10-Smt3 (N, cleaved yes); made in house; host or cells: Escherichia coli BL21 (DE3) CodonPlus RIL
# T1 sequence (Q6CKI0 whole entry, the tested form may be a part): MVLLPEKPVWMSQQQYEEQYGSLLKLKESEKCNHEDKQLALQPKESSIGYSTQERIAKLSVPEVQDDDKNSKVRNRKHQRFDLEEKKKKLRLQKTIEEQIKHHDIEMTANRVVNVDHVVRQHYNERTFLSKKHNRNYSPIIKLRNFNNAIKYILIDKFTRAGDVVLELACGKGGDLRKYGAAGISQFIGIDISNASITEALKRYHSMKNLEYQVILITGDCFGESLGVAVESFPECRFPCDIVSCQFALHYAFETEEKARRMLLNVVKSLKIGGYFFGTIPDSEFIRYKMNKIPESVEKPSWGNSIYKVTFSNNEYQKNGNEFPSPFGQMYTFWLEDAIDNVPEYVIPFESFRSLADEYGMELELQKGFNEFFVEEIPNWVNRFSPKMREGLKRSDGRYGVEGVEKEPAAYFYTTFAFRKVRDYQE
# Experimental: (§1) Reactions (50 μl) were performed in triplicate by incubating 250 nM cap methyltransferases with 100 μM SAM and 250 μM GpppA or 2 mM GTP at 30°C in a buffer consisting of 200 mM NaCl, 50 mM Tris–HCl (pH 8.2), and 5 mM βME. Samples (10 μl aliquots) were withdrawn at specified time points (KlAbd1s: 0, 2, 5, 10, and 15 min, Fig. 1A; ScAbd1s: 0, 5, 10, 15, and 20 min, Fig. 4A) and quenched with 10 μl of 100 mM H2SO4 and 50 μM L-tryptophan, and then stored at −80°C pending liquid chromatography-tandem mass spectrometry (LC–MS/MS) analyses.
# (§2) The quenched samples were thawed and centrifuged at 4000 × g at 4°C for 30 min to pellet denatured protein and the supernatants were transferred to a 96-well plate for analysis. Methylation was measured via HPLC with detection by MS conducted on an Agilent 1200 HPLC system coupled with a 6490 QQQ (Agilent Technologies). Assay samples were separated on an InfinityLab Poroshell 120 HILIC-Z column (2.1 mm × 100 mm, 2.7 μm particle size; Agilent Technologies) equilibrated in NH4Ac buffer [A: 10% 10 mM NH4Ac, pH 9.0, and 500 μM methylene diphosphonic acid/90% acetonitrile (ACN); B: 90% 10 mM NH4Ac, pH 9.0, and 500 μM methylene diphosphonic acid/10% ACN] with a flow rate 400 μl/min. The eluents of the column were directed to an electrospray ion source, connected to the QQQ. Samples were analyzed by the QQQ using multiple reaction monitoring (MRM) in negative mode, which measures peak intensities of the product ions of m^7GpppA (785: 408, 620 m/z) or m^7GTP (536.0: 159.0, 371.0 m/z) and the internal standard, L-tryptophan (203: 116, 141.9 m/z). The resultant peak intensities were then integrated. L-Tryptophan was used as an internal standard to perform cross-sample analysis. The m^7GpppA or m^7GTP product ion integrated intensities were normalized to the integrated ion intensity of L-tryptophan, yielding the ISTD. […] ISTDs obtained from reaction samples quenched at specified time points were then used to interpolate either m^7GpppA or m^7GTP concentrations using the calibration curves and used for quantification. […]
# [2] = system: recombinant S. cerevisiae Abd1; conditions: cited from earlier work
# ScAbd1-Y416N-R422H = molecular target: T2, ScAbd1-Y416N-R422H (Saccharomyces cerevisiae, UniProt P32783, R422H/Y416N); assay: Inhibition of GpppA methylation by ScAbd1-Y416N-R422H; type: biochemical; conditions: ScAbd1-Y416N-R422H 250 nM, 100 μM SAM, 250 μM GpppA, 30°C, 20 min; read-out: SAH IC50
# T2 construct: aa 1–436); made in house; host or cells: Escherichia coli BL21 (DE3) CodonPlus RIL
# T2 sequence (P32783 whole entry Y416N/R422H, the tested form may be a part): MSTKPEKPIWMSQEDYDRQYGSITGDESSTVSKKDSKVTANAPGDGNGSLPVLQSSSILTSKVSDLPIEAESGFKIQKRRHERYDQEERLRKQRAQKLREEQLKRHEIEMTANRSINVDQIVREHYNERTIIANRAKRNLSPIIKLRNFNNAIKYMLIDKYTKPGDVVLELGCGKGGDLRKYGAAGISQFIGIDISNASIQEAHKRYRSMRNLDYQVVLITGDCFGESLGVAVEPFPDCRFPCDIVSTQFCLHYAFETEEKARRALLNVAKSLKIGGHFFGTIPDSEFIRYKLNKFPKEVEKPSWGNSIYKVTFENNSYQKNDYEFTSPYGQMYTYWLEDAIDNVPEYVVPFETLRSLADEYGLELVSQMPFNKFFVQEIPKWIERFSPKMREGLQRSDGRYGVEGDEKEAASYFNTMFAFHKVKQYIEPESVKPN
# Experimental: as §1
# (§3) The quenched samples were thawed and centrifuged at 4000 × g at 4°C for 30 min to pellet denatured protein and the supernatants were transferred to a 96-well plate for analysis. Methylation was measured via HPLC with detection by MS conducted on an Agilent 1200 HPLC system coupled with a 6490 QQQ (Agilent Technologies). […] Samples were analyzed by the QQQ using multiple reaction monitoring (MRM) in negative mode, which measures peak intensities of the product ions of m^7GpppA (785: 408, 620 m/z) or m^7GTP (536.0: 159.0, 371.0 m/z) and the internal standard, L-tryptophan (203: 116, 141.9 m/z). […] ISTDs obtained from reaction samples quenched at specified time points were then used to interpolate either m^7GpppA or m^7GTP concentrations using the calibration curves and used for quantification. […]
# ScAbd1-L59P-Y416C = molecular target: T3, ScAbd1-L59P-Y416C (Saccharomyces cerevisiae, UniProt P32783, L59P/Y416C); assay: Inhibition of GpppA methylation by ScAbd1-L59P-Y416C; type: biochemical; conditions: ScAbd1-L59P-Y416C 250 nM, 100 μM SAM, 250 μM GpppA, 30°C, 20 min
# T3 construct: aa 1–436); made in house; host or cells: Escherichia coli BL21 (DE3) CodonPlus RIL
# T3 sequence (P32783 whole entry L59P/Y416C, the tested form may be a part): as the sequence (P32783 whole entry Y416N/R422H, the tested form may be a part) above, with L59P, N416C, H422R counted along it
# Experimental: as §1, §3
# [3] = molecular target: T4, ScAbd1-E124K-K163R-K311R-F387Y-Y416F (Saccharomyces cerevisiae, UniProt P32783, E124K/F387Y/K163R/K311R/Y416F); assay: Inhibition of GpppA methylation by ScAbd1-E124K-K163R-K311R-F387Y-Y416F; type: biochemical; conditions: ScAbd1-E124K-K163R-K311R-F387Y-Y416F 250 nM, 100 μM SAM, 250 μM GpppA, 30°C, 20 min
# T4 construct: aa 1–436); made in house; host or cells: Escherichia coli BL21 (DE3) CodonPlus RIL
# T4 sequence (P32783 whole entry E124K/K163R/K311R/F387Y/Y416F, the tested form may be a part): as the sequence (P32783 whole entry Y416N/R422H, the tested form may be a part) above, with E124K, K163R, K311R, F387Y, N416F, H422R counted along it
# Experimental: as §1, §3
# ScAbd1-Y416A = molecular target: T5, ScAbd1-Y416A (Saccharomyces cerevisiae, UniProt P32783, Y416A); assay: Inhibition of GpppA methylation by ScAbd1-Y416A; type: biochemical; conditions: ScAbd1-Y416A 250 nM, 100 μM SAM, 250 μM GpppA, 30°C, 20 min
# T5 construct: aa 1–436); made in house; host or cells: Escherichia coli BL21 (DE3) CodonPlus RIL
# T5 sequence (P32783 whole entry Y416A, the tested form may be a part): as the sequence (P32783 whole entry Y416N/R422H, the tested form may be a part) above, with N416A, H422R counted along it
# Experimental: as §1, §3
# Ecm1 = conditions: methylation of GTP by Ecm1 in the presence of 5 μM SAM; cited from earlier work
# ScAbd1WT = molecular target: T6, ScAbd1WT (Saccharomyces cerevisiae, UniProt P32783); assay: Inhibition of GpppA methylation by wild-type ScAbd1 (LC-MS/MS assay); type: biochemical; conditions: for IC50: ScAbd1WT 250 nM, 100 μM SAM, 250 μM GpppA, 30°C, 20 min
# T6 construct: aa 1–436); made in house; host or cells: Escherichia coli BL21 (DE3) CodonPlus RIL
# T6 sequence (P32783 whole entry, the tested form may be a part): as the sequence (P32783 whole entry Y416N/R422H, the tested form may be a part) above, with N416Y, H422R counted along it
# Experimental: as §1, §2
# [4] = system: S. cerevisiae abd1Δ pABD1* pSAM3 strains; assay: Spot test for growth of abd1Δ pSAM3 strains bearing ABD1 alleles on SFG-supplemented agar; type: cell-based, Saccharomyces cerevisiae; conditions: 30°C
# Experimental: A library of PCR-mutated ABD1 alleles (ABD1*) in a CEN TRP1 plasmid under the control of the ABD1 promoter was constructed as described. The pABD1* library DNA was transfected into S. cerevisiae strain abd1Δ pABD1 (CEN URA3 ABD1) pSAM3 (2µ HIS3 SAM3). Trp^+ His^+ transformants were selected and then plated to agar medium containing 5-fluoroorotic acid (FOA) to counter-select against the CEN URA3 ABD1 plasmid. FOA survivors were plated to Trp- His- agar plates (25 ml) to which 300 µl of a 2.5 or 5 µM solution of SFG had been applied. Colonies that grew well on SFG-containing plates were candidates for harboring SFG-resistant ABD1* alleles. To ascertain whether SFG-resistance was linked to ABD1, the plasmids were recovered from individual SFG-resistant strains and amplified clonally by transformation in E. coli. The pABD1* plasmid DNAs isolated from E. coli were transfected into S. cerevisiae abd1Δ pABD1 (CEN URA3 ABD1) pSAM3 (2µ HIS3 SAM3) strain. Trp^+ His^+ transformants were selected and plated to FOA for counterselection against the CEN URA3 ABD1 plasmid. The resulting abd1Δ pABD1* (CEN TRP1 ABD1*) pSAM3 (2µ HIS3 SAM3) strains were tested in parallel with a control abd1Δ pABD1 (CEN TRP1 ABD1) pSAM3 (2µ HIS3 SAM3) strain for growth on Trp- His- agar plates (25 ml) supplemented with SFG (300 µl of 0.63, 1.25, 2.5 and 5 µM SFG per plate). […]
# [5] = system: ScAbd1 variants L59P-Y416C, Y416N-R422H, E124K-K163R-K311R-F387Y-Y416F and Y416A; assay: Inhibition of GpppA methylation, the four SFG-resistant ScAbd1 variants stated together; type: biochemical, Saccharomyces cerevisiae; conditions: versus wild-type ScAbd1
# Experimental: as §1, §3
# [6] = system: S. cerevisiae and an S. cerevisiae strain complemented with Candida albicans capping enzymes; design: method as in PMID 15964937, PMID 11035009; conditions: S. cerevisiae versus strain complemented with Candida albicans capping enzymes; cited from earlier work
# [7] = molecular target: human cap guanine-N7 methyltransferase RNMT; conditions: cited from earlier work
# [8] = system: S. cerevisiae strain complemented with the mammalian capping apparatus; design: method as in PMID 10347220; conditions: cited from earlier work
compound,measurement,setting,value
"Nc1ncnc2c1ncn2[C@@H]1O[C@H](CSCC[C@H](N)C(=O)O)[C@@H](O)[C@H]1O [SAH, S-adenosylhomocysteine]",IC50,[1]; read-out: IC50 of SAH,12300 ± 4100 nM
same,IC50,"[2]; methylation of GpppA by recombinant S. cerevisiae Abd1, read-out: IC50 of SAH",21000 nM
same,IC50,ScAbd1-Y416N-R422H,29700 ± 4700 nM
same,IC50,ScAbd1-L59P-Y416C; read-out: SAH IC50,33500 ± 2300 nM
same,IC50,[3]; read-out: SAH IC50,35600 ± 2600 nM
same,IC50,ScAbd1-Y416A; read-out: SAH IC50,16400 ± 2600 nM
same,IC50,Ecm1,4000 nM
same,IC50,ScAbd1WT; read-out: SAH IC50,31600 ± 6800 nM
"Nc1ncnc2c1ncn2[C@@H]1O[C@H](C[C@@H](N)CC[C@H](N)C(=O)O)[C@@H](O)[C@H]1O [SFG, sinefungin]",SFG resistance of growth,"[4]; single ABD1-Y416A mutation, abd1Δ pSAM3 (2μ HIS3 SAM3) strain background, agar",sufficed to confer SFG resistance
same,sensitivity to growth inhibition by SFG,"[4]; three ABD1* strains (L59P-Y416C, Y416N-R422H, E124K-K163R-K311R-F387Y-Y416F) versus isogenic wild-type ABD1, Trp- His- agar",less sensitive to growth inhibition by SFG than the isogenic wild-type ABD1 strain
same,potency of SFG versus SAH (ratio of the IC50 values),"[1]; KlAbd1, GpppA substrate",240 fold
same,IC50,[1]; read-out: apparent IC50 of SFG,52.1 ± 13.1 nM
same,IC50,"[2]; S. cerevisiae Abd1 in vitro, GpppA, read-out: apparent IC50 of SFG",24 nM
same,tighter binding of SFG than of SAM or SAH,[2]; ScAbd1,up to 900 fold
same,potency of SFG versus SAH,[2]; methylation of GpppA by recombinant S. cerevisiae Abd1,900 fold
same,IC50,ScAbd1-L59P-Y416C; read-out: SFG IC50,1350 ± 69.9 nM
same,increase of the IC50 for SFG in the SFG-resistant mutants,[5],20 fold
same,IC50,[3]; read-out: SFG IC50,1470 ± 67.7 nM
same,IC50,ScAbd1-Y416A; read-out: SFG IC50,1470 ± 77 nM
same,"potency of growth inhibition, comparison of the two strains",[6],equal potency
same,IC50,Ecm1,1500 nM
same,IC50 of SFG lower than that of SAH,[7],130 fold
same,IC50,ScAbd1WT; read-out: SFG IC50,65 nM and 65.1 nM
same,sensitivity/affinity for SFG versus SAH (ratio of IC50 values),"ScAbd1WT; wild-type ScAbd1, GpppA substrate",485 fold
same,potency of growth inhibition relative to S. cerevisiae with fungal capping system,[8],five-fold less potent
